ChEMBL document CHEMBL1201862, “PubChem BioAssay data set” (2004)
Several values for one entry are separate records, joined by “and”; a condition that tells them apart may be missing. Equal entries are not always repeated.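 Where inhibition never reached the appropriate level, the endpoint shown equals the highest concentration tested. Otherwise, values were interpolated linearly from a five-concentration, 48-hour dose response in 96-well plates. GI50 = concentration required for 50% inhibition of growth.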 Activity calls are given as the source filed them. Rule as the data show it: active = GI50 up to about 1.1 µM and inactive = higher.

What was measured:
Assay in all cases: NCI anticancer screen, dose series, 48 h
A549 = system: A549
BT-549 = system: BT-549
CCRF-CEM = system: CCRF-CEM
HCT-116 = system: HCT-116
HCT-15 = system: HCT-15
NCI-H226 = system: NCI-H226
NCI-H23 = system: NCI-H23
NCI-H522 = system: NCI-H522
NCI/ADR-RES = system: NCI/ADR-RES
OVCAR-3 = system: OVCAR-3
PC-3 = system: PC-3
SK-OV-3 = system: SK-OV-3
SN12C = system: SN12C
SNB-75 = system: SNB-75
SW-620 = system: SW-620
UACC-257 = system: UACC-257
NCI-H460 = system: NCI-H460
SK-MEL-28 = system: SK-MEL-28
SNB-19 = system: SNB-19
Hs-578T = system: Hs-578T

Measured: GI50

COc1ccc2c(c1)CC1=C(O2)c2ccc(OC)cc2OC1
inactive: A549 74.6 µM | BT-549 21.5 µM | CCRF-CEM 31 µM | HCT-116 18.3 µM | NCI-H226 18.5 µM | NCI-H23 45.7 µM | NCI-H522 17 µM | NCI/ADR-RES 34 µM | OVCAR-3 19.9 µM | PC-3 23.2 µM | SK-OV-3 90.4 µM | SN12C 20.5 µM | SNB-75 25 µM | SW-620 16.6 µM | UACC-257 19.2 µM
17.2 µM: HCT-15

Cc1cc(S(=O)(=O)Nc2nc3ccccc3c(=O)n2N)c(S)cc1Cl
35.5 µM: HCT-15
inactive: A549 31.1 µM | BT-549 47.6 µM | CCRF-CEM 62.5 µM | HCT-116 32 µM | NCI-H226 21.7 µM | NCI-H23 31.8 µM | NCI-H460 33.4 µM | NCI/ADR-RES 24.5 µM | OVCAR-3 44.6 µM | PC-3 69.3 µM | SK-MEL-28 67.9 µM | SK-OV-3 32.3 µM | SN12C 44.5 µM | SW-620 59.8 µM | UACC-257 59.8 µM

Cc1cc2[nH]c3c(C#N)c(-c4ccccc4)c(CN4CCOCC4)c(=O)n3c2cc1C
inactive: A549 > 100 µM | BT-549 > 100 µM | CCRF-CEM > 100 µM | HCT-116 > 100 µM | NCI-H226 > 100 µM | NCI-H23 > 100 µM | NCI-H460 > 100 µM | NCI-H522 > 100 µM | NCI/ADR-RES > 100 µM | OVCAR-3 > 100 µM | PC-3 > 100 µM | SK-MEL-28 > 100 µM | SK-OV-3 > 100 µM | SN12C > 100 µM | SNB-19 > 100 µM | SNB-75 40.7 µM | SW-620 > 100 µM | UACC-257 > 100 µM
> 100 µM: HCT-15

O=C(N(C1=CCCC1)N(c1ccccc1)c1ccccc1)C(F)(F)F
21.4 µM: HCT-15
inactive: A549 26.4 µM | BT-549 29.9 µM | CCRF-CEM 23.4 µM | HCT-116 21.5 µM | NCI-H226 19.7 µM | NCI-H23 30.4 µM | NCI-H460 17.5 µM | NCI-H522 10.4 µM | NCI/ADR-RES 28.8 µM | OVCAR-3 18.9 µM | PC-3 30.3 µM | SK-MEL-28 28.4 µM | SK-OV-3 40.1 µM | SN12C 26.9 µM | SNB-19 30 µM | SNB-75 20 µM | SW-620 20.2 µM | UACC-257 21.6 µM

N#Cc1c(-c2ccccc2)c(C#N)c(=S)n(C2OC(CO)C(O)C(O)C2O)c1N (stereo not given)
inactive: A549 > 100 µM | BT-549 46.1 µM and 80 µM | CCRF-CEM > 100 µM and 50.9 µM | HCT-116 > 100 µM | Hs-578T 79.8 µM | NCI-H226 > 100 µM | NCI-H23 > 100 µM | NCI-H460 94 µM | NCI-H522 33.4 µM and 51.5 µM | OVCAR-3 > 100 µM | PC-3 > 100 µM | SK-MEL-28 > 100 µM | SN12C > 100 µM | SNB-19 > 100 µM | SNB-75 42.2 µM and 64.9 µM | SW-620 > 100 µM | UACC-257 > 100 µM
> 100 µM: HCT-15

O=C1C=Cc2c(Cl)sc(Cl)c21
1.51 µM: HCT-15
active: CCRF-CEM 0.234 µM | HCT-116 0.752 µM | SW-620 0.845 µM
inactive: A549 4.24 µM | BT-549 3.08 µM | NCI-H226 6.4 µM | NCI-H23 2.22 µM | NCI-H460 9.31 µM | NCI/ADR-RES 2.03 µM | OVCAR-3 1.85 µM | PC-3 1.88 µM | SK-MEL-28 1.73 µM | SK-OV-3 15.2 µM | SN12C 2.18 µM | SNB-19 4.63 µM | SNB-75 3.61 µM | UACC-257 2.03 µM

N#C/C(C(=O)Nc1ccccc1)=C(/N)N1CCCC1
inactive: A549 > 100 µM | CCRF-CEM > 100 µM | HCT-116 > 100 µM | Hs-578T > 100 µM | NCI-H226 > 100 µM | NCI-H23 > 100 µM | NCI-H460 > 100 µM | NCI-H522 > 100 µM | NCI/ADR-RES > 100 µM | OVCAR-3 > 100 µM | PC-3 > 100 µM | SK-MEL-28 > 100 µM | SK-OV-3 > 100 µM | SN12C > 100 µM | SNB-19 > 100 µM | SW-620 > 100 µM | UACC-257 > 100 µM
> 100 µM: HCT-15

O=C1/C(=C/c2ccccc2O)N=C(c2ccccc2)N1C1Nc2cc3c(cc2S1)NC(N1C(=O)/C(=C/c2ccccc2O)N=C1c1ccccc1)S3 (stereo not given)
13.5 µM: HCT-15
inactive: CCRF-CEM 39.7 µM | HCT-116 27.3 µM | Hs-578T 30.5 µM | NCI-H226 > 100 µM | NCI-H23 31.9 µM | NCI-H460 12.5 µM | NCI-H522 35.2 µM | NCI/ADR-RES 10.5 µM | OVCAR-3 55.1 µM | PC-3 34.4 µM | SK-MEL-28 65.3 µM | SK-OV-3 35.8 µM | SW-620 36.3 µM | UACC-257 66.8 µM

CCOC(CN(C)C(=O)Nc1cccc2ccccc12)OCC
> 10 µM: HCT-15
inactive: A549 > 10 µM | CCRF-CEM > 10 µM | HCT-116 > 10 µM | Hs-578T > 10 µM | NCI-H226 > 10 µM | NCI-H23 > 10 µM | NCI-H460 > 10 µM | NCI-H522 > 10 µM | NCI/ADR-RES > 10 µM | OVCAR-3 > 10 µM | PC-3 > 10 µM | SK-MEL-28 > 10 µM | SK-OV-3 > 10 µM | SN12C > 10 µM | SNB-19 > 10 µM | SNB-75 > 10 µM | SW-620 > 10 µM | UACC-257 > 10 µM

O=C1c2ccccc2C2=Nc3ccncc3CN12
> 100 µM: HCT-15
inactive: A549 > 100 µM | BT-549 > 100 µM | CCRF-CEM > 100 µM | HCT-116 > 100 µM | NCI-H226 > 100 µM | NCI-H23 > 100 µM | NCI-H460 > 100 µM | NCI-H522 > 100 µM | NCI/ADR-RES > 100 µM | OVCAR-3 > 100 µM | PC-3 > 100 µM | SK-MEL-28 > 100 µM | SK-OV-3 > 100 µM | SN12C > 100 µM | SNB-19 > 100 µM | SNB-75 74.5 µM | SW-620 > 100 µM | UACC-257 > 100 µM

Cc1nc2c3c(ncn2n1)Oc1c(c(-c2ccccc2)nn1-c1ccccc1)C3c1ccc(Cl)cc1 (stereo not given)
inactive: A549 > 100 µM | CCRF-CEM > 10 µM | HCT-116 > 100 µM | Hs-578T 23.2 µM | NCI-H226 > 100 µM | NCI-H23 > 100 µM | NCI-H460 > 100 µM | NCI/ADR-RES > 100 µM | OVCAR-3 > 100 µM | PC-3 > 100 µM | SK-MEL-28 > 100 µM | SK-OV-3 43.3 µM | SN12C > 100 µM | SNB-19 34.8 µM | SNB-75 39.6 µM | SW-620 > 100 µM | UACC-257 > 100 µM
> 100 µM: HCT-15

CC(=O)Nc1ccc(S(=O)(=O)/N=c2/sc(S(N)(=O)=O)nn2C)cc1
inactive: A549 > 100 µM | BT-549 > 100 µM | HCT-116 > 100 µM | NCI-H226 > 100 µM | NCI-H23 > 100 µM | NCI-H460 > 100 µM | NCI-H522 > 100 µM | NCI/ADR-RES > 100 µM | OVCAR-3 > 100 µM | PC-3 > 100 µM | SK-MEL-28 > 100 µM | SK-OV-3 > 100 µM | SNB-19 > 100 µM | SNB-75 > 100 µM | SW-620 > 100 µM
> 100 µM: HCT-15

O=[N+]([O-])c1ccc2[nH]c(=S)[nH]c(=S)c2c1
inactive: A549 > 100 µM | CCRF-CEM > 100 µM | HCT-116 > 100 µM | Hs-578T > 100 µM | NCI-H226 > 100 µM | NCI-H23 > 100 µM | NCI-H460 > 100 µM | NCI-H522 > 100 µM | NCI/ADR-RES > 100 µM | OVCAR-3 > 100 µM | PC-3 > 100 µM | SK-MEL-28 > 100 µM | SK-OV-3 > 100 µM | SN12C > 100 µM | SNB-19 > 100 µM | SNB-75 20.7 µM | SW-620 > 10 µM | UACC-257 > 100 µM
> 100 µM: HCT-15

Cc1nc(N)sc1/N=N/c1cc(Cl)c([N+](=O)[O-])cc1Cl
inactive: A549 12.8 µM | CCRF-CEM 11.8 µM | HCT-116 33.6 µM | Hs-578T 21.9 µM | NCI-H226 14 µM | NCI-H460 30 µM | NCI-H522 15.5 µM | NCI/ADR-RES 20.6 µM | OVCAR-3 15.6 µM | PC-3 18.7 µM | SK-MEL-28 10.7 µM | SK-OV-3 74.6 µM | SN12C 17.6 µM | SNB-19 29.1 µM | SW-620 16.4 µM | UACC-257 16.7 µM
21.4 µM: HCT-15
active: SNB-75 < 0.01 µM

CN(CCCNC(=O)c1nn(-c2ccc(Cl)cc2Cl)c2c1ccc1ccccc12)CCCNC(=O)c1nn(-c2ccc(Cl)cc2Cl)c2c1ccc1ccccc12
1.7 µM: HCT-15
inactive: A549 1.63 µM | CCRF-CEM 1.92 µM | HCT-116 1.67 µM | Hs-578T 1.44 µM | NCI-H226 2.25 µM | NCI-H23 1.81 µM | NCI-H460 1.78 µM | NCI-H522 1.46 µM | NCI/ADR-RES 1.59 µM | OVCAR-3 1.72 µM | PC-3 1.68 µM | SK-MEL-28 1.66 µM | SK-OV-3 2 µM | SN12C 1.65 µM | SNB-19 1.54 µM | SNB-75 1.75 µM | SW-620 2.26 µM | UACC-257 1.78 µM

O/N=C1\CCc2nonc2\C1=N/Nc1ccccc1
inactive: A549 > 100 µM | CCRF-CEM > 100 µM | HCT-116 > 100 µM | Hs-578T > 100 µM | NCI-H226 35.6 µM | NCI-H23 > 100 µM | NCI-H460 > 100 µM | NCI/ADR-RES > 100 µM | OVCAR-3 > 100 µM | PC-3 > 100 µM | SK-MEL-28 > 100 µM | SK-OV-3 > 100 µM | SN12C > 100 µM | SNB-19 > 100 µM | SNB-75 > 100 µM | SW-620 > 100 µM | UACC-257 > 100 µM
> 100 µM: HCT-15
